{"source": "patent US20120122870A1", "about": "“Treatment Of Ischemia-Reperfusion Injury” (MUSC FOUNDATION FOR RESEARCH DEVELOPMENT, priority 2009, published 2012)"}
{"molecular_target": "T1, recombinant human SK (Homo sapiens, UniProt Q9NYA1)", "T1 construct": "GST (glutathione-S-transferase) (N); made in house; host or cells: bacteria (pGEX bacterial expression vector)", "T1 sequence (Q9NYA1 whole entry)": "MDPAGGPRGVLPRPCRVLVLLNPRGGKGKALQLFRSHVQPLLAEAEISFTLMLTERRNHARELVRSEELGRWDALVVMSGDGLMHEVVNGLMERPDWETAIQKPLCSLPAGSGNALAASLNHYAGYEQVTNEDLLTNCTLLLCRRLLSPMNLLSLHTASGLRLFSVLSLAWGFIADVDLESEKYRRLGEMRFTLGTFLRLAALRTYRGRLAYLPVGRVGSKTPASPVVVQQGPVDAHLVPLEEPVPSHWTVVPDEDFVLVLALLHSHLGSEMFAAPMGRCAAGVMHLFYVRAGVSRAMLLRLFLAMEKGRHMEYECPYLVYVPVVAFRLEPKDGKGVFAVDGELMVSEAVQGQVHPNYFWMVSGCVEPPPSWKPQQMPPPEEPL", "experiment": "Recombinant human SK activity assay ([3H]sphingosine to [3H]S1P)", "type": "biochemical", "conditions": "Human SK incubated with 6 μg/mL of compound; percentage of SK activity inhibited", "method": "SK activity is measured by incubation of the recombinant SK with [^3H]sphingosine and 1 mM ATP under defined conditions, followed by extraction of the assay mixture with chloroform:methanol under basic conditions. […] Radioactivity in aliquots of the aqueous phase is then quantified as a measure of [^3H]S1P formation.\nHuman SK was incubated with 6 μg/mL of the indicated compounds, and then assayed for activity as described above. Values in the column labeled “Recombinant SK (% inhibition)” represent the percentage of SK activity that was inhibited. MDA-MB-231 cells were incubated with 20 μg/mL of the indicated compounds and then assayed for endogenous SK activity as indicated above. Values in the column labeled “Cellular S1P (% inhibition)” represent the percentage of S1P production that was inhibited. Additionally, MDA-MB-231 cells were treated with varying concentration of certain compounds and the amount of S1P produced by the cells was determined. Values in the column labeled “Cellular S1P IC50 (μM)” represent the concentration of compound required to inhibit the production of S1P by 50%. ND=not determined.", "units": {"inhibition at 6 µg/mL": "%", "Recombinant SK (% inhibition)": "%"}}
{"smiles": "O=C(NCc1cc(F)cc(C(F)(F)F)c1)C12CC3CC(C1)CC(c1ccc(Cl)cc1)(C3)C2", "note": "[A18, 3-(4-Chloro-phenyl)-adamantane-1-carboxylic acid 3-fluoro-5-trifluoromethyl-benzylamide]", "inhibition at 6 µg/mL": 0}
{"smiles": "O=C(NCc1cc(F)cc(F)c1)C12CC3CC(C1)CC(c1ccc(Cl)cc1)(C3)C2", "note": "[A20, 3-(4-Chloro-phenyl)-adamantane-1-carboxylic acid 3,5-difluoro-benzylamide]", "inhibition at 6 µg/mL": 0}
{"smiles": "O=C(NCc1ccc(F)c(F)c1)C12CC3CC(C1)CC(c1ccc(Cl)cc1)(C3)C2", "note": "[A21, 3-(4-Chloro-phenyl)-adamantane-1-carboxylic acid 3,4-difluoro-benzylamide]", "inhibition at 6 µg/mL": 65}
{"smiles": "O=C(NCc1cc(F)c(F)c(F)c1)C12CC3CC(C1)CC(c1ccc(Cl)cc1)(C3)C2", "note": "[A22, 3-(4-Chloro-phenyl)-adamantane-1-carboxylic acid 3,4,5-trifluoro-benzylamide]", "inhibition at 6 µg/mL": 56}
{"smiles": "O=C(NCc1ccc(F)c(Cl)c1)C12CC3CC(C1)CC(c1ccc(Cl)cc1)(C3)C2", "note": "[A23, 3-(4-Chloro-phenyl)-adamantane-1-carboxylic acid 3-chloro-4-fluoro-benzylamide]", "inhibition at 6 µg/mL": 0}
{"smiles": "O=C(NCc1ccc(F)c(C(F)(F)F)c1)C12CC3CC(C1)CC(c1ccc(Cl)cc1)(C3)C2", "note": "[A24, 3-(4-Chloro-phenyl)-adamantane-1-carboxylic acid 4-fluoro-3-trifluoromethyl-benzylamide]", "inhibition at 6 µg/mL": 20}
{"smiles": "O=C(NCc1ccc(F)cc1Cl)C12CC3CC(C1)CC(c1ccc(Cl)cc1)(C3)C2", "note": "[A25, 3-(4-Chloro-phenyl)-adamantane-1-carboxylic acid 2-chloro-4-fluoro-benzylamide]", "inhibition at 6 µg/mL": 47}
{"smiles": "O=C(NCc1ccc(Cl)c(C(F)(F)F)c1)C12CC3CC(C1)CC(c1ccc(Cl)cc1)(C3)C2", "note": "[A26, 3-(4-Chloro-phenyl)-adamantane-1-carboxylic acid 4-chloro-3-trifluoromethyl-benzylamide]", "inhibition at 6 µg/mL": 36}
{"smiles": "NCc1c(Cl)c(Cl)c(Cl)c(CNC(=O)C23CC4CC(C2)CC(c2ccc(Cl)cc2)(C4)C3)c1Cl", "note": "[A27, 3-(4-Chloro-phenyl)-adamantane-1-carboxylic acid 3-aminomethyl-2,4,5,6-tetrachloro-benzylamide]", "inhibition at 6 µg/mL": 50}
{"smiles": "CC(NC(=O)C12CC3CC(C1)CC(c1ccc(Cl)cc1)(C3)C2)c1ccc(Cl)cc1", "note": "(centres unmarked) [A28, 3-(4-Chloro-phenyl)-adamantane-1-carboxylic acid [1-(4-chloro-phenyl)-ethyl]-amide]", "inhibition at 6 µg/mL": 6}
{"smiles": "CS(=O)(=O)c1ccc(CNC(=O)C23CC4CC(C2)CC(c2ccc(Cl)cc2)(C4)C3)cc1", "note": "[A30, 3-(4-Chloro-phenyl)-adamantane-1-carboxylic acid 4-methanesulfonyl-benzylamide]", "inhibition at 6 µg/mL": 1}
{"smiles": "CN(C)c1ccc(CNC(=O)C23CC4CC(C2)CC(c2ccc(Cl)cc2)(C4)C3)cc1", "note": "[A31, 3-(4-Chloro-phenyl)-adamantane-1-carboxylic acid 4-dimethylamino-benzylamide]", "inhibition at 6 µg/mL": 74}
{"smiles": "O=C(NCc1ccc(OC(F)(F)F)cc1)C12CC3CC(C1)CC(c1ccc(Cl)cc1)(C3)C2", "note": "[A32, 3-(4-Chloro-phenyl)-adamantane-1-carboxylic acid 4-trifluoromethoxy-benzylamide]", "inhibition at 6 µg/mL": 17}
{"smiles": "O=C(NCc1cccc(OC(F)(F)F)c1)C12CC3CC(C1)CC(c1ccc(Cl)cc1)(C3)C2", "note": "[A33, 3-(4-Chloro-phenyl)-adamantane-1-carboxylic acid 3-trifluoromethoxy-benzylamide]", "inhibition at 6 µg/mL": 10}
{"smiles": "O=C(NCc1ccc(Oc2ccccc2)cc1)C12CC3CC(C1)CC(c1ccc(Cl)cc1)(C3)C2", "note": "[A34, 3-(4-Chloro-phenyl)-adamantane-1-carboxylic acid 4-phenoxy-benzylamide]", "Recombinant SK (% inhibition)": 0}
{"smiles": "O=C(NCc1ccc(O)c(O)c1)C12CC3CC(C1)CC(c1ccc(Cl)cc1)(C3)C2", "note": "[A36, 3-(4-Chloro-phenyl)-adamantane-1-carboxylic acid 3,4-dihydroxy-benzylamide]", "inhibition at 6 µg/mL": 37}
{"smiles": "COc1ccc(CCNC(=O)C23CC4CC(C2)CC(c2ccc(Cl)cc2)(C4)C3)cc1Br", "note": "[A42, 3-(4-Chloro-phenyl)-adamantane-1-carboxylic acid [2-(3-bromo-4-methoxy-phenyl)-ethyl]-amide]", "inhibition at 6 µg/mL": 5}
{"smiles": "O=C(NCCc1ccc2c(c1)OCO2)C12CC3CC(C1)CC(c1ccc(Cl)cc1)(C3)C2", "note": "[A45, 3-(4-Chloro-phenyl)-adamantane-1-carboxylic acid (2-benzo[1,3]dioxol-5-yl-ethyl)-amide]", "inhibition at 6 µg/mL": 64}
{"smiles": "O=C(NCCc1cccc(Oc2ccccc2)c1)C12CC3CC(C1)CC(c1ccc(Cl)cc1)(C3)C2", "note": "[A46, 3-(4-Chloro-phenyl)-adamantane-1-carboxylic acid [2-(3-phenoxy-phenyl)-ethyl]-amide]", "inhibition at 6 µg/mL": 4}
{"smiles": "O=C(NCCc1ccc(Oc2ccccc2)cc1)C12CC3CC(C1)CC(c1ccc(Cl)cc1)(C3)C2", "note": "[A47, 3-(4-Chloro-phenyl)-adamantane-1-carboxylic acid [2-(4-phenoxy-phenyl)-ethyl]-amide]", "inhibition at 6 µg/mL": 26}
{"smiles": "O=C(NCc1ccc(-c2ccccc2)cc1)C12CC3CC(C1)CC(c1ccc(Cl)cc1)(C3)C2", "note": "[A49, 3-(4-Chloro-phenyl)-adamantane-1-carboxylic acid (biphenyl-4-ylmethyl)-amide]", "inhibition at 6 µg/mL": 33}
{"smiles": "CC(C)(C)NCCCNC(=O)C12CC3CC(C1)CC(c1ccc(Cl)cc1)(C3)C2", "note": "[A53, 3-(4-Chloro-phenyl)-adamantane-1-carboxylic acid (3-tert-butylamino-propyl)-amide]", "inhibition at 6 µg/mL": 52}
{"smiles": "O=C(NCCCN1CCCC1)C12CC3CC(C1)CC(c1ccc(Cl)cc1)(C3)C2", "note": "[A54, 3-(4-Chloro-phenyl)-adamantane-1-carboxylic acid (3-pyrrolidin-1-yl-propyl)-amide]", "inhibition at 6 µg/mL": 95}
{"smiles": "O=C1CCCN1CCCNC(=O)C12CC3CC(C1)CC(c1ccc(Cl)cc1)(C3)C2", "note": "[A55, 3-(4-Chloro-phenyl)-adamantane-1-carboxylic acid [3-(2-oxo-pyrrolidin-1-yl)-propyl]-amide]", "inhibition at 6 µg/mL": 8}
{"smiles": "O=C(NCCN1CCNCC1)C12CC3CC(C1)CC(c1ccc(Cl)cc1)(C3)C2", "note": "[A59, 3-(4-Chloro-phenyl)-adamantane-1-carboxylic acid (2-piperazin-1-yl-ethyl)-amide]", "inhibition at 6 µg/mL": 0}
{"smiles": "O=C(NCCCn1ccnc1)C12CC3CC(C1)CC(c1ccc(Cl)cc1)(C3)C2", "note": "[A65, 3-(4-Chloro-phenyl)-adamantane-1-carboxylic acid (3-imidazol-1-yl-propyl)-amide]", "inhibition at 6 µg/mL": 3}
{"smiles": "O=C(Nc1nnn[nH]1)C12CC3CC(C1)CC(c1ccc(Cl)cc1)(C3)C2", "note": "[A67, 3-(4-Chloro-phenyl)-adamantane-1-carboxylic acid (1H-tetrazol-5-yl)-amide]", "inhibition at 6 µg/mL": 10}
{"smiles": "O=C(Nc1ncnc2[nH]cnc12)C12CC3CC(C1)CC(c1ccc(Cl)cc1)(C3)C2", "note": "[A73, 3-(4-Chloro-phenyl)-adamantane-1-carboxylic acid (9H-purin-6-yl)-amide]", "inhibition at 6 µg/mL": 53}
{"smiles": "FC(F)(F)c1ccc(CNCC23CC4CC(C2)CC(c2ccc(Cl)cc2)(C4)C3)cc1", "note": "[A77, [3-(4-Chloro-phenyl)-adamantan-1-ylmethyl]-(4-trifluoromethyl-benzyl)-amine]", "inhibition at 6 µg/mL": 27}
{"smiles": "Fc1cc(C(F)(F)F)ccc1CNCC12CC3CC(C1)CC(c1ccc(Cl)cc1)(C3)C2", "note": "[A78, [3-(4-Chloro-phenyl)-adamantan-1-ylmethyl]-(2-fluoro-4-trifluoromethyl-benzyl)-amine]", "inhibition at 6 µg/mL": 43}
{"smiles": "Fc1ccc(CNCC23CC4CC(C2)CC(c2ccc(Cl)cc2)(C4)C3)cc1C(F)(F)F", "note": "[A79, [3-(4-Chloro-phenyl)-adamantan-1-ylmethyl]-(4-fluoro-3-trifluoromethyl-benzyl)-amine]", "inhibition at 6 µg/mL": 19}
{"smiles": "FC(F)(F)Oc1ccc(CNCC23CC4CC(C2)CC(c2ccc(Cl)cc2)(C4)C3)cc1", "note": "[A80, [3-(4-Chloro-phenyl)-adamantan-1-ylmethyl]-(4-trifluoromethoxy-benzyl)-amine]", "inhibition at 6 µg/mL": 5}
{"smiles": "Clc1ccc(C23CC4CC(CC(CNCCc5cccc(Oc6ccccc6)c5)(C4)C2)C3)cc1", "note": "[A81, [3-(4-Chloro-phenyl)-adamantan-1-ylmethyl]-[2-(3-phenoxy-phenyl)-ethyl]-amine]", "inhibition at 6 µg/mL": 67}
{"smiles": "CN1CCC(NCC23CC4CC(C2)CC(c2ccc(Cl)cc2)(C4)C3)CC1", "note": "[A82, [3-(4-Chloro-phenyl)-adamantan-1-ylmethyl]-(1-methyl-piperidin-4-yl)-amine]", "inhibition at 6 µg/mL": 75}
{"smiles": "CC(C)(C)NCCCNCC12CC3CC(C1)CC(c1ccc(Cl)cc1)(C3)C2", "note": "[A84, N-tert-Butyl-N′-[3-(4-chloro-phenyl)-adamantan-1-ylmethyl]-propane-1,3-diamine]", "inhibition at 6 µg/mL": 84}
{"smiles": "Clc1ccc(C23CC4CC(CC(CNCCCN5CCCC5)(C4)C2)C3)cc1", "note": "[A85, [3-(4-Chloro-phenyl)-adamantan-1-ylmethyl]-(3-pyrrolidin-1-yl-propyl)-amine]", "inhibition at 6 µg/mL": 0}
{"smiles": "CN1CCCC1CCNCC12CC3CC(C1)CC(c1ccc(Cl)cc1)(C3)C2", "note": "(centres unmarked) [A86, [3-(4-Chloro-phenyl)-adamantan-1-ylmethyl]-[2-(1-methyl-pyrrolidin-2-yl)-ethyl]-amine]", "inhibition at 6 µg/mL": 6}
{"smiles": "Clc1ccc(C23CC4CC(CC(CNCc5ccncc5)(C4)C2)C3)cc1", "note": "[A88, [3-(4-Chloro-phenyl)-adamantan-1-ylmethyl]-pyridin-4-ylmethyl-amine]", "inhibition at 6 µg/mL": 1}
